Measurements from US12171886B2, “Mussel adhesive protein-based photothermal agent and photothermal-responsive adhesive nanoparticles” (POSTECH RESEARCH AND BUSINESS DEVELOPMENT FOUNDATION, priority 2018, dated 2024).

Test: Absorbance of nanoparticles in the near-infrared region (UV-vis spectrometer)
Type: physicochemical
Conditions: control solutions without DOPA-metal complex
Description: Absorbances in the near-infrared region of the FeMAP NPs and VMAP NPs prepared in Example 1-3 were analyzed through a UV-vis spectrometer, and the analysis results are shown in FIG. 4.

Structure (SMILES)	absorbance, absorption spectrum 500 nm to 900 nm
[Cl][V]([Cl])[Cl] [VCl3]	almost no absorbance
[Cl][Fe]([Cl])[Cl] [FeCl3]	almost no absorbance
